Assay results as given in patent US11111245B2, “Derivatives of N-cycloalkyl/heterocycloalkyl-4-(imidazo[1,2-a]pyridine)pyrimidin-2-amine as therapeutic agents” (Aucentra Therapeutics Pty Ltd, priority 2017, dated 2021).

Experiments:
CDK4/D1 = CDK4/D1 (Homo sapiens, UniProt P11802); assay: ADP Glo Kinase assay CDK4/D1; assay type: biochemical; conditions: CDK4D1; for remaining activity at 10 µM: compound at 10 μM, read-out: residual activity (%) at 10 μM CDK4D1
Procedure, shortened: (§1)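 Other CDKs and further kinases were profiled externally by radiometric assay. In-house ADP Glo assays covered CDK4/D1 and CDK6/D3 (RB-CTF substrate, pH 7.5 Tris buffer with MgCl2, DTT, BSA) and CDK9/T1 (RBER-IRStide substrate), 40 min at 37° C.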

CDK6/D3 = CDK6/D3 (Homo sapiens, UniProt Q00534); assay: ADP Glo Kinase assay CDK6/D3; assay type: biochemical; conditions: CDK6D3; compound at 10 μM; read-out: residual activity (%) at 10 μM CDK6D3
CDK6/D3, sequence (Q00534 whole entry): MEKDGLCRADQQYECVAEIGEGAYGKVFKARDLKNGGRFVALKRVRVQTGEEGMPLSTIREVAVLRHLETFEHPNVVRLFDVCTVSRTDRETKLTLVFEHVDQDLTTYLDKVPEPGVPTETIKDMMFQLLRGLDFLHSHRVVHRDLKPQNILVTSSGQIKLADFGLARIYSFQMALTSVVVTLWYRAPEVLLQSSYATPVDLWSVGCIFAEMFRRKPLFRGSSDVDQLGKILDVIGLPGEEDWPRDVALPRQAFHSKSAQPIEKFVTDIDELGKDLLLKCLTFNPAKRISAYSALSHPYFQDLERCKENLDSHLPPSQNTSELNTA
CDK6/D3, sequence (P30281 whole entry partner): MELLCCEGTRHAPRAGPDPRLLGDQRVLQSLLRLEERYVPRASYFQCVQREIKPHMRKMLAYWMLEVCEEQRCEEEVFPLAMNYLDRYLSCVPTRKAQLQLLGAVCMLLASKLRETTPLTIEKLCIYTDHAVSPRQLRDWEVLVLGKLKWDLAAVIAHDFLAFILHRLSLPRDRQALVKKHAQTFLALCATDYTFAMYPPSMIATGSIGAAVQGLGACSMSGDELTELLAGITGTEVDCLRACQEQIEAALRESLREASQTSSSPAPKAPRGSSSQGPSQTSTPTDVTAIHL
Method: Eurofins Pharma Discovery or Reaction Biology Corporation Kinase Profiler services were used to measure inhibition of CDKs and other kinases by radiometric assay. Inhibition of CDK4/D1, CDK6/D3 and CDK9/T1 were also determined in-house using ADP Glo Kinase assays (Promega Corporation, Madison, USA). Briefly, the kinase reaction for CDK4/D1 and CDK6/D3 was performed with kinase reaction buffer ([…] Tris base pH 7.5, 20 mM MgCl2, 0.4 mM DTT), 0.1 mg/ml BSA and RB-CTF substrate (retinoblastoma protein 1 C-terminal fraction). For CDK9/CyclinT1, the kinase reaction was performed with standard assay buffer and Kinase Dilution Buffer and RBER-IRStide substrate. Serial dilutions of 1:3 were prepared for test compounds for 10 concentrations (from 10 μM to 0.5 nM). The kinase reactions were started by addition of ATP, incubated for 40 min at 37° C. and then stopped by adding 10 μL of ADP Glo reagent. After incubation at room temperature in the dark for 40 min, 20 μL of kinase detection reagent was added per well and incubated for 40 min. Luminescence was measured using an EnVision Multilabel plate reader (PerkinElmer, Buckinghamshire, UK). Positive and negative controls were performed in the presence and absence of CDK kinases, respectively. Half-maximal inhibition (IC50) values were calculated using a 4-parameter logistic non-linear regression model with Graphpad prism (Version 6.0). Apparent inhibition constants (Ki) values were calculated from Km (ATP) and IC50 values for the respective kinases.

CDK9/T1 = CDK9/T1 (Homo sapiens, UniProt P50750); assay: ADP Glo Kinase assay CDK9/T1; assay type: biochemical; conditions: CDK9T1; read-out: CDK inhibition, Ki (μM) CDK9T1
CDK9/T1, sequence (P50750 whole entry): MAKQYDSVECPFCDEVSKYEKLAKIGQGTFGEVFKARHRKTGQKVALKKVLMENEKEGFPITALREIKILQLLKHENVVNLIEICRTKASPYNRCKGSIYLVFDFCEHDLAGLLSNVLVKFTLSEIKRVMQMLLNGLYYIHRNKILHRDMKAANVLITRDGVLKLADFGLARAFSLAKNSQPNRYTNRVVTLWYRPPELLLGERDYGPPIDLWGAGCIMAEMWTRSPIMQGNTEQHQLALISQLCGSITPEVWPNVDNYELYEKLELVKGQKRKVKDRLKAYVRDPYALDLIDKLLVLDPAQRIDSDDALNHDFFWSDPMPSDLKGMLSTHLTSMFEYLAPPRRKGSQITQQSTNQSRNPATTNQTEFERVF
CDK9/T1, sequence (O60563 whole entry partner): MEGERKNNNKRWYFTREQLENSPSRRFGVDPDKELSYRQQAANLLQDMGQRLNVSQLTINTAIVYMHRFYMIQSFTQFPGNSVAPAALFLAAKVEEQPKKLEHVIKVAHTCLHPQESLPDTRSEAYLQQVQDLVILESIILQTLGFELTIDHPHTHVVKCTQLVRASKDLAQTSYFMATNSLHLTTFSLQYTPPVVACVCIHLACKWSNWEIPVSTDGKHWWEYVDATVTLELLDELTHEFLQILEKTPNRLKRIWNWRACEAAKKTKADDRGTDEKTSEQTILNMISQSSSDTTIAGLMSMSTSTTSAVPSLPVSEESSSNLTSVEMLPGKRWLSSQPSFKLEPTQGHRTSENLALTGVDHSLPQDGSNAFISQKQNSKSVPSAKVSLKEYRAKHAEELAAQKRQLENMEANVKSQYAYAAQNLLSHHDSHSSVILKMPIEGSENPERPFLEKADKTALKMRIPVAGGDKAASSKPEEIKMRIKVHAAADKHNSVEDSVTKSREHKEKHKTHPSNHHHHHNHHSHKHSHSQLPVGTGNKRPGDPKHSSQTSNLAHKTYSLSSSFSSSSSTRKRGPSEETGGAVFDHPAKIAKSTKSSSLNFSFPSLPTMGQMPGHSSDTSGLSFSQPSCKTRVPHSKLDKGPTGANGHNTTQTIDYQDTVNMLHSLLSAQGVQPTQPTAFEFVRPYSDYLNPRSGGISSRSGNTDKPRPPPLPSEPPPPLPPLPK
Procedure, shortened: as §1

CDKs and other kinases [1] = biological target: T1, CDKs and other kinases (Homo sapiens, UniProt P06493); assay: Radiometric kinase assay (Eurofins Pharma Discovery or Reaction Biology Corporation Kinase Profiler); assay type: biochemical; conditions: CDK1B; for Ki: read-out: CDK inhibition, Ki (μM) CDK1B; for remaining activity at 10 µM: compound at 10 μM, read-out: residual activity (%) at 10 μM CDK1B
T1 construct: other: CDK1B; residual activity (%) at 10 μM CDK1B; compound at 10 μM
T1 sequence (P06493 whole entry): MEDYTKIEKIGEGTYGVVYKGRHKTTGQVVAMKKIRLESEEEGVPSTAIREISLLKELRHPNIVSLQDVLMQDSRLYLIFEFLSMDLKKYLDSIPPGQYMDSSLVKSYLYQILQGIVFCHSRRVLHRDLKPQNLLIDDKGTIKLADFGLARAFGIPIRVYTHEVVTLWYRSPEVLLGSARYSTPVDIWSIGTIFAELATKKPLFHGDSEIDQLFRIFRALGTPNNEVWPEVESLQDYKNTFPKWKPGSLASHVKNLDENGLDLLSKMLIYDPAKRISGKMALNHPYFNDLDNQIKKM
Procedure, shortened: as §1

CDKs and other kinases [2] = biological target: T2, CDKs and other kinases (Homo sapiens, UniProt P24941); assay: as above; assay type: biochemical; conditions: CDK2A; for Ki: read-out: CDK inhibition, Ki (μM) CDK2A; for remaining activity at 10 µM: compound at 10 μM, read-out: residual activity (%) at 10 μM CDK2A
T2 construct: other: CDK2A; residual activity (%) at 10 μM CDK2A; compound at 10 μM
Procedure, shortened: as §1

CDKs and other kinases [3] = biological target: T3, CDKs and other kinases (Homo sapiens, UniProt P50613); assay: as above; assay type: biochemical; conditions: CDK7H; for Ki: read-out: CDK inhibition, Ki (μM) CDK7H; for remaining activity at 10 µM: compound at 10 μM, read-out: residual activity (%) at 10 μM CDK7H
T3 construct: other: CDK7H; residual activity (%) at 10 μM CDK7H; compound at 10 μM
T3 sequence (P50613 whole entry): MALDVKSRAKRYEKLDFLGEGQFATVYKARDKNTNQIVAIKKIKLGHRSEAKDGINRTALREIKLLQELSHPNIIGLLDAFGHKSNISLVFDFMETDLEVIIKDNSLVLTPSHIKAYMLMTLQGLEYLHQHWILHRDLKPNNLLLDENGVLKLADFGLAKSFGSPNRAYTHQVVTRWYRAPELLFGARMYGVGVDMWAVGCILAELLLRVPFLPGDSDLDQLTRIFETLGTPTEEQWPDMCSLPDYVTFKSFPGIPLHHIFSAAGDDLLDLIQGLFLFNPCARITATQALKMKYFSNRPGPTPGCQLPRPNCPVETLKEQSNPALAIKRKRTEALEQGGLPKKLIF
Procedure, shortened: as §1

leukemia cell lines = assay: Resazurin cell viability assay on leukemia cell lines (72 h growth inhibition, GI50); assay type: cell-based; conditions: Homo sapiens, MV4-11 cells
Procedure, shortened: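 Standard published viability protocols apply here, MTT-based for solid tumour cells and resazurin-based for leukaemia cells, with 50% growth inhibition concentrations derived through non-linear regression.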

CDK4/D1, sequence (P11802 whole entry): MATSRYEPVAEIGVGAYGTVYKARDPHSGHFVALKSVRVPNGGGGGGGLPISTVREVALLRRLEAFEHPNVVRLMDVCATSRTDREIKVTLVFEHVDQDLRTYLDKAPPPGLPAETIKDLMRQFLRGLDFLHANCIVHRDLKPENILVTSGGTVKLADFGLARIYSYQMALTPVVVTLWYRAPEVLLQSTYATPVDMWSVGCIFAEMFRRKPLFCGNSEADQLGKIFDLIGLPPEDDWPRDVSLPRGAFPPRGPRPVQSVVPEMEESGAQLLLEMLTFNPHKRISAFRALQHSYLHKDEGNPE
CDK4/D1, sequence (P24385 whole entry partner): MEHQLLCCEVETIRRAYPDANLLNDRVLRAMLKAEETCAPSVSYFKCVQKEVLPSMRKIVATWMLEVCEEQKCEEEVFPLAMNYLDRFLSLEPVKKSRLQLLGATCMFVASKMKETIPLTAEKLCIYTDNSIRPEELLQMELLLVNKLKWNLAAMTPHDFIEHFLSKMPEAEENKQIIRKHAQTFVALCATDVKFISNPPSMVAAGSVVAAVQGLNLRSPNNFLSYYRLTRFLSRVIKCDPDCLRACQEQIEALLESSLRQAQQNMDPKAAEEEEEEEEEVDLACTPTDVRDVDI

## N[C@H]1CC[C@H](Nc2ncc(Cl)c(-c3cnc4ccccn34)n2)CC1 [Compound 42, (1r,4r)-N^1-(5-chloro-4-(imidazo[1,2-a]pyridin-3-yl)pyrimidin-2-yl)cyclohexane-1,4-diamine]
CDK4/D1
  remaining activity at 10 µM: 0%
CDK6/D3
  remaining activity at 10 µM: 45%
CDK9/T1
  Ki: 0.061 µM
CDKs and other kinases [1]
  Ki: 0.46 µM
CDKs and other kinases [2]
  Ki: 0.046 µM
CDKs and other kinases [3]
  Ki: 0.024 µM
Leukemia cell lines
  GI50: 0.007 ± 0.001 µM

## Cc1cnc(NC2CCC(N(C)C)CC2)nc1-c1cnc2ccc(-c3ccccc3)cn12 (centres unmarked) [Compound 97, N^1,N^1-Dimethyl-N^4-(5-methyl-4-(6-phenylimidazo[1,2-^a]pyridin-3-yl)pyrimidin-2-yl)cyclohexane-1,4-diamine]
CDK4/D1
  remaining activity at 10 µM: 54%
CDK6/D3
  remaining activity at 10 µM: 39%
CDK9/T1
  Ki: 0.016 µM
CDKs and other kinases [1]
  remaining activity at 10 µM: 28%
CDKs and other kinases [2]
  remaining activity at 10 µM: 32%
CDKs and other kinases [3]
  remaining activity at 10 µM: 9%
Leukemia cell lines
  GI50: 0.058 ± 0.002 µM

## Cc1cnc(N[C@H]2CC[C@H](N)CC2)nc1-c1cnc2ccc(Nc3ccccc3)cn12 [Compound 31, (1r,4r)-N^1-(5-Methyl-4-(6-(phenylamino)imidazo[1,2-a]pyridin-3-yl)pyrimidin-2-yl)cyclohexane-1,4-diamine]
CDK4/D1
  residual activity at 10 µM: 45%
CDK6/D3
  remaining activity at 10 µM: 11%
CDK9/T1
  Ki: 0.018 µM
CDKs and other kinases [1]
  remaining activity at 10 µM: 32%
CDKs and other kinases [2]
  residual activity at 10 µM: 145%
CDKs and other kinases [3]
  remaining activity at 10 µM: 13%
Leukemia cell lines
  GI50: 0.005 ± 0.002 µM

## Cc1cnc(N[C@H]2CC[C@H](N)CC2)nc1-c1cnc2cc(C(F)(F)F)c(Br)cn12 [Compound 114, (1r,4r)-N^1-(4-(6-Bromo-7-(trifluoromethyl)imidazo [1,2-a]pyridin-3-yl)-5-methylpyrimidin-2-yl) cyclohexane-1,4-diamine]
CDK4/D1
  remaining activity at 10 µM: 8%
CDK6/D3
  remaining activity at 10 µM: 40%
CDK9/T1
  Ki: 0.005 µM
CDKs and other kinases [1]
  remaining activity at 10 µM: 53%
CDKs and other kinases [2]
  remaining activity at 10 µM: 28%
CDKs and other kinases [3]
  Ki: 0.075 µM
Leukemia cell lines
  GI50: 0.026 ± 0.009 µM

## N[C@H]1CC[C@H](Nc2ncc(Cl)c(-c3cnc4ccc(-c5ncccc5F)cn34)n2)CC1 [Compound 40, (1r,4r)-N^1-(5-Chloro-4-(6-(3-fluoropyridin-2-yl)imidazo [1,2-a]pyridin-3-yl)pyrimidin-2-yl)cyclohexane-1,4-diamine]
CDK4/D1
  remaining activity at 10 µM: 30%
CDK6/D3
  remaining activity at 10 µM: 72%
CDK9/T1
  Ki: 0.014 µM
CDKs and other kinases [1]
  Ki: 0.88 µM
CDKs and other kinases [2]
  Ki: 0.73 µM
CDKs and other kinases [3]
  Ki: 0.038 µM
Leukemia cell lines
  GI50: 0.005 ± 0.001 µM

## Cc1cnc(N[C@H]2CC[C@H](N)CC2)nc1-c1cnc2cc(Nc3cccnc3)ccn12 [Compound 55, (1r,4r)-N^1-(5-Methyl-4-(7-(pyridin-3-ylamino)imidazo [1,2-a]pyridin-3-yl)pyrimidin-2-yl)cyclohexane-1,4-diamine]
CDK4/D1
  remaining activity at 10 µM: 5%
CDK6/D3
  remaining activity at 10 µM: 2%
CDK9/T1
  Ki: 0.069 µM
CDKs and other kinases [1]
  remaining activity at 10 µM: 24%
CDKs and other kinases [2]
  remaining activity at 10 µM: 5%
CDKs and other kinases [3]
  remaining activity at 10 µM: 8%
Leukemia cell lines
  GI50: 0.558 ± 0.13 µM

## Cc1cnc(N[C@H]2CC[C@H](N)CC2)nc1-c1cnc2ccc(Oc3cccnc3)cn12 [Compound 74, (1r,4r)-N^1-(5-Methyl-4-(6-(pyridin-3-yloxy)imidazo[1,2-a]pyridin-3-yl)pyrimidin-2-yl)cyclohexane-1,4-diamine]
CDK4/D1
  remaining activity at 10 µM: 41%
CDK6/D3
  remaining activity at 10 µM: 46%
CDK9/T1
  Ki: 0.02 µM
CDKs and other kinases [1]
  remaining activity at 10 µM: 39%
CDKs and other kinases [2]
  remaining activity at 10 µM: 11%
CDKs and other kinases [3]
  remaining activity at 10 µM: 50%
Leukemia cell lines
  GI50: 0.349 ± 0.086 µM

## N[C@H]1CC[C@H](Nc2ncc(Cl)c(-c3cnc4ccc(-c5ccc(N6CCNCC6)nc5)cn34)n2)CC1 [Compound 84, (1r,4r)-N^1-(5-Chloro-4-(6-(6-(piperazin-1-yl)pyridin-3-yl)imidazo[1,2-a]pyridin-3-yl)pyrimidin-2-yl)cyclohexane-1,4-diamine]
CDK4/D1
  remaining activity at 10 µM: 9%
CDK6/D3
  remaining activity at 10 µM: 12%
CDK9/T1
  Ki: 0.033 µM
CDKs and other kinases [1]
  remaining activity at 10 µM: 51%
CDKs and other kinases [2]
  remaining activity at 10 µM: 39%
CDKs and other kinases [3]
  remaining activity at 10 µM: 10%
Leukemia cell lines
  GI50: 0.035 ± 0.006 µM

## Cc1cncc(Nc2ccc3ncc(-c4nc(N[C@H]5CC[C@H](N)CC5)ncc4C)n3c2)c1 [Compound 64, (1r,4r)-N^1-(5-Methyl-4-(6-((5-methylpyridin-3-yl)amino)imidazo[1,2-a]pyridin-3-yl)pyrimidin-2-yl)cyclohexane-1,4-diamine]
CDK4/D1
  remaining activity at 10 µM: 1%
CDK6/D3
  remaining activity at 10 µM: 38%
CDK9/T1
  Ki: 0.016 µM
CDKs and other kinases [1]
  Ki: 2.37 µM
CDKs and other kinases [2]
  Ki: 0.59 µM
CDKs and other kinases [3]
  Ki: 1.44 µM
Leukemia cell lines
  GI50: 0.155 ± 0.054 µM

## Cc1cnc(N[C@H]2CC[C@H](N)CC2)nc1-c1cnc2ccc(NC(=O)Cc3ccccc3)cn12 [Compound 73, N-(3-(2-(((1r,4r)-4-Aminocyclohexyl)amino)-5-methylpyrimidin-4-yl)imidazo[1,2-a]pyridin-6-yl)-2-phenylacetamide]
CDK4/D1
  remaining activity at 10 µM: 53%
CDK6/D3
  remaining activity at 10 µM: 49%
CDK9/T1
  Ki: 0.469 µM
CDKs and other kinases [1]
  remaining activity at 10 µM: 75%
CDKs and other kinases [2]
  remaining activity at 10 µM: 62%
CDKs and other kinases [3]
  remaining activity at 10 µM: 63%
Leukemia cell lines
  GI50: 0.752 ± 0.055 µM

## N[C@H]1CC[C@H](Nc2ncc(Cl)c(-c3cnc4ccc(-c5ccncc5)cn34)n2)CC1 [Compound 36, (1r,4r)-N^1-(5-Chloro-4-(6-(pyridin-4-yl)imidazo[1,2-a]pyridin-3-yl)pyrimidin-2-yl)cyclohexane-1,4-diamine]
CDK4/D1
  remaining activity at 10 µM: 4%
CDK6/D3
  remaining activity at 10 µM: 48%
CDK9/T1
  Ki: 0.016 µM
CDKs and other kinases [1]
  Ki: 0.065 µM
CDKs and other kinases [2]
  Ki: 0.016 µM
CDKs and other kinases [3]
  Ki: 0.094 µM
Leukemia cell lines
  GI50: 0.004 ± 0.001 µM

## Fc1cnc(N[C@H]2CC[C@H](NC3CCOCC3)CC2)nc1-c1cnc2ccccn12 [Compound 33, (1r,4r)-N^1-(5-Fluoro-4-(imidazo[1,2-a]pyridin-3-yl)pyrimidin-2-yl)-N4-(tetrahydro-2H-pyran-4-yl) cyclohexane-1,4-diamine]
CDK4/D1
  remaining activity at 10 µM: 7%
CDK6/D3
  remaining activity at 10 µM: 12%
CDK9/T1
  Ki: 0.022 µM
CDKs and other kinases [1]
  remaining activity at 10 µM: 11%
CDKs and other kinases [2]
  remaining activity at 10 µM: 13%
CDKs and other kinases [3]
  remaining activity at 10 µM: 7%
Leukemia cell lines
  GI50: 0.004 ± 0.001 µM

## Cc1cnc(N[C@H]2CC[C@H](N)CC2)nc1-c1cnc2ccc(-c3ccc(S(=O)(=O)N(C)C)cc3)cn12 [Compound 62, 4-(3-(2-(((1r,4r)-4-Aminocyclohexyl)amino)-5-methylpyrimidin-4-yl)imidazo[1,2-a]pyridin-6-yl)-N,N-dimethylbenzenesulfonamide]
CDK4/D1
  remaining activity at 10 µM: 63%
CDK6/D3
  remaining activity at 10 µM: 87%
CDK9/T1
  Ki: 0.497 µM
CDKs and other kinases [1]
  remaining activity at 10 µM: 87%
CDKs and other kinases [2]
  remaining activity at 10 µM: 72%
CDKs and other kinases [3]
  remaining activity at 10 µM: 60%
Leukemia cell lines
  GI50: 0.025 ± 0.009 µM

## Cc1cnc(N[C@H]2CC[C@H](N)CC2)nc1-c1cnc2ccc(-c3c(C)noc3C)cn12 [Compound 59, (1r,4r)-N^1-(4-(6-(3,5-Dimethylisoxazol-4-yl)imidazo [1,2-a]pyridin-3-yl)-5-methylpyrimidin-2-yl) cyclohexane-1,4-diamine]
CDK4/D1
  remaining activity at 10 µM: 55%
CDK6/D3
  remaining activity at 10 µM: 91%
CDK9/T1
  Ki: 0.072 µM
CDKs and other kinases [1]
  Ki: 2.68 µM
CDKs and other kinases [2]
  Ki: 0.92 µM
CDKs and other kinases [3]
  Ki: 2.39 µM
Leukemia cell lines
  GI50: 0.274 ± 0.064 µM
